Test: Double-blind pharmacokinetic study of a single 1200 mg IV dose of oritavancin in healthy volunteers
Assay type: in vivo
Settings: human, plasma, healthy subjects, average
Experimental: A randomized, double-blind, single center cohort study of a new formulation of a single 1200 mg IV dose of oritavancin in healthy volunteers, adjusting infusion time, concentration and reconstitution/administration solutions, of a single 1200 mg intravenous (IV) infusion of oritavancin in healthy adult subjects, was performed. Cohort 1 was administered the current, approved formulation of oritavancin which uses Sterile Water For Injection (SWFI) as the reconstituting agent and D5W for further dilution for a volume of 1000 mL. This infusion was given per the approved label over three hours. Cohort 2 was administered a new formulation for which hydroxypropyl-β-cyclodextrin (HPBCD) was included in the reconstitution diluent and D5W is used for further dilution for a total volume of 250 mL. This formulation was administered over two hours. Cohorts 3, 4, and 5 were administered the same new formulation as Cohort 2 (HPBCD and 250 mL of D5W); however, the infusion was administered over 90, 60, 30 minutes respectively. Two subjects in each of Cohorts 2, 3, 4, and 5 received a placebo infusion of D5W to use as a comparison when reviewing adverse event data. Healthy volunteer subjects providing informed consent and meeting all study eligibility criteria were randomized in the study and received one 1200 mg dose of IV oritavancin or placebo (cohorts 2-5 only).
COHORT 1: At the time of use, each vial was reconstituted by adding 40 mL of Sterile Water or for Injection, (“SWFI,” United States Pharmacopeia) to each 400 mg vial of oritavancin. Vials reconstituted in this manner gave a 10 mg/mL solution. After reconstitution, the compositions were combined and further diluted in 5% dextrose in water (D5W) to provide a total volume of approximately 1000 mL. At each dosing, 1200 mg of oritavancin in 1000 mL total of diluent was administered at a constant rate IV infusion over 3 hours via a single dedicated peripheral IV line (n=6).
(§1) COHORT 2: At the time of use, each vial was reconstituted by adding 4 mL of SWFI and 4 mL of 20% (w/v) HPBCD solution, to each 400 mg vial of oritavancin. Vials reconstituted in this manner provided a 50 mg/mL oritavancin solution. After reconstitution, the compositions were combined and further diluted in 5% dextrose in water (D5W) to provide a total volume of approximately 250 mL. At each dosing, 1200 mg of oritavancin in 250 mL of diluent was administered as a constant rate IV infusion over 2 hours via a single dedicated peripheral IV line (n=8) or a 2 hour placebo IV infusion of 250 mL of D5W (n=2).
as §1, with “3:” for “2:”, “90 minutes” for “2 hours”, “90 minute” for “2 hour”, “placebo” for “placebo IV”
as §1, with “4:” for “2:”, “60 minutes” for “2 hours”, “60 minute” for “2 hour”, “placebo” for “placebo IV”
COHORT 5: At the time of use, each vial was reconstituted by adding 4 mL of SWFI and 4 mL of 20% (w/v) HPBCD solution, to each 400 mg vial of oritavancin. […]

[1] = Cohort 1: 1200 mg IV, approved formulation (SWFI, no HPBCD), D5W 1000 mL, 3 h infusion
[2] = Cohort 2: 1200 mg IV, HPBCD formulation, D5W 250 mL, 2 h infusion
[3] = Cohort 3: 1200 mg IV, HPBCD formulation, D5W 250 mL, 1.5 h infusion
[4] = Cohort 4: 1200 mg IV, HPBCD formulation, D5W 250 mL, 1 h infusion
[5] = Cohort 5: 1200 mg IV, HPBCD formulation, D5W 250 mL, 0.5 h infusion
[6] = Cohort 6: 1200 mg IV, HPBCD formulation, NS 250 mL, 1 h infusion

CN[C@H](CC(C)C)C(=O)N[C@H]1C(=O)N[C@@H](CC(N)=O)C(=O)N[C@H]2C(=O)N[C@H]3C(=O)N[C@H](C(=O)N[C@H](C(=O)O)c4cc(O)cc(O)c4-c4cc3ccc4O)[C@H](O[C@H]3C[C@](C)(N)[C@@H](O)[C@H](C)O3)c3ccc(c(Cl)c3)Oc3cc2cc(c3O[C@@H]2O[C@H](CO)[C@@H](O)[C@H](O)[C@H]2O[C@H]2C[C@](C)(NCc3ccc(-c4ccc(Cl)cc4)cc3)[C@@H](O)[C@H](C)O2)Oc2ccc(cc2Cl)[C@H]1O [Oritavancin]
AUC(0-inf) [1]: 3680 µg·h/mL
Cmax [1]: 183 µg/mL
AUC(0-inf) [2]: 2710 µg·h/mL
Cmax [2]: 153 µg/mL
AUC(0-inf) [3]: 2850 µg·h/mL
Cmax [3]: 177 µg/mL
AUC(0-inf) [4]: 2870 µg·h/mL
Cmax [4]: 202 µg/mL
AUC(0-inf) [5]: 3180 µg·h/mL
Cmax [5]: 199 µg/mL
AUC(0-inf) [6]: 2960 µg·h/mL
Cmax [6]: 206 µg/mL

Source: patent US20170239323A1, “ORITAVANCIN FORMULATIONS” (The Medicines Company, priority 2016, published 2017)
